Experimental data: ChEMBL document CHEMBL3085714 (J Med Chem, 2013)

Tests used:
Homo sapiens [1] = species: Homo sapiens; experiment: Selectivity for p38alpha MAP kinase (unknown origin) over HCK (unknown origin)
Homo sapiens [2] = species: Homo sapiens; experiment: Selectivity for p38alpha MAP kinase (unknown origin) over MET Y1230A mutant (unknown origin)
Homo sapiens [3] = species: Homo sapiens; experiment: Selectivity for p38alpha MAP kinase (unknown origin) over MEK1 (unknown origin)
Homo sapiens [4] = species: Homo sapiens; experiment: Selectivity for p38alpha MAP kinase (unknown origin) over IRAK4 (unknown origin)
Homo sapiens [5] = species: Homo sapiens; experiment: Selectivity for p38alpha MAP kinase (unknown origin) over DYRK1B (unknown origin)
Homo sapiens [6] = species: Homo sapiens; experiment: Selectivity for p38alpha MAP kinase (unknown origin) over RPS6KA1 (unknown origin)
Homo sapiens [7] = species: Homo sapiens; experiment: Selectivity for p38alpha MAP kinase (unknown origin) over ROCK2 (unknown origin)
Homo sapiens [8] = species: Homo sapiens; experiment: Selectivity for p38alpha MAP kinase (unknown origin) over EGFR T790M mutant (unknown origin)
Homo sapiens [9] = species: Homo sapiens; experiment: Selectivity for p38alpha MAP kinase (unknown origin) over PASK (unknown origin)
Homo sapiens [10] = species: Homo sapiens; experiment: Selectivity for p38alpha MAP kinase (unknown origin) over SGK1 (unknown origin)
[11] = target: STE20-like serine/threonine-protein kinase (Homo sapiens) (UniProt Q9H2G2); experiment: Inhibition of SLK (unknown origin) at 10 uM
STE20-like serine/threonine-protein kinase (Homo sapiens), sequence (Q9H2G2 whole entry, looked up): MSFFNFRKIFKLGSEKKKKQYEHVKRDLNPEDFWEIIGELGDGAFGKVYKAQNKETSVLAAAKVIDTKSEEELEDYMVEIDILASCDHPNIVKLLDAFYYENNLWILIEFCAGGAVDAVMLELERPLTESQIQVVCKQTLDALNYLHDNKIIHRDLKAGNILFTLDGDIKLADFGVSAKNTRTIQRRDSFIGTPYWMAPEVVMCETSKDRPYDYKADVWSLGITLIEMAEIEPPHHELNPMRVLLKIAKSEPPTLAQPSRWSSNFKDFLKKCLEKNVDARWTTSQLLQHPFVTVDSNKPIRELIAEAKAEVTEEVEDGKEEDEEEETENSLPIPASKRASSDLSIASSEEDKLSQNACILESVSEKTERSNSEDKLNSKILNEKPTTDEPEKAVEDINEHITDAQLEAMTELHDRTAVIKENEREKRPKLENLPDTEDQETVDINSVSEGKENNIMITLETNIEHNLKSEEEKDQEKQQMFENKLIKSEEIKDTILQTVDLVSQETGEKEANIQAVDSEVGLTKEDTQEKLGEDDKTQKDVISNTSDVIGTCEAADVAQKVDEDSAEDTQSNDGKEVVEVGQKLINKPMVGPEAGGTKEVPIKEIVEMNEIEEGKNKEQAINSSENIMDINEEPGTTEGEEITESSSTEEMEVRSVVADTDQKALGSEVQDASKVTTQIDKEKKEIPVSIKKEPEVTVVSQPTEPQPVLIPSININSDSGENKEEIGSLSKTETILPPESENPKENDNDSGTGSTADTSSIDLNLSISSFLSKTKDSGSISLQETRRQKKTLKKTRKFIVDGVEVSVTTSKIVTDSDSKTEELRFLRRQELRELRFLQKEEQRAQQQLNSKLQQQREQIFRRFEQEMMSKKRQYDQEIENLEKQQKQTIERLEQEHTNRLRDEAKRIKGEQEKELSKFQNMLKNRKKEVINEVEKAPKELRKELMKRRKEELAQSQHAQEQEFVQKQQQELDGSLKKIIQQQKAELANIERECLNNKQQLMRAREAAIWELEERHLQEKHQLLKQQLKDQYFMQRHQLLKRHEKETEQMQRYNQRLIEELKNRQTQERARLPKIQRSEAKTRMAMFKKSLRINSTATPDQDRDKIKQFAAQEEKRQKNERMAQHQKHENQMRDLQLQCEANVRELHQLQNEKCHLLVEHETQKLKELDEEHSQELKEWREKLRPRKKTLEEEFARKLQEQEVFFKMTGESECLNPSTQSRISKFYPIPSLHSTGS

Homo sapiens [12] = species: Homo sapiens; experiment: Selectivity for p38alpha MAP kinase (unknown origin) over GRK4 (unknown origin)
Homo sapiens [13] = species: Homo sapiens; experiment: Selectivity for p38alpha MAP kinase (unknown origin) over CLK1 (unknown origin)
Homo sapiens [14] = species: Homo sapiens; experiment: Selectivity for p38alpha MAP kinase (unknown origin) over ACK1 (unknown origin)
Homo sapiens [15] = species: Homo sapiens; experiment: Selectivity for p38alpha MAP kinase (unknown origin) over EPHB4 (unknown origin)
Homo sapiens [16] = species: Homo sapiens; experiment: Selectivity for p38alpha MAP kinase (unknown origin) over PIM1 (unknown origin)
Homo sapiens [17] = species: Homo sapiens; experiment: Selectivity for p38alpha MAP kinase (unknown origin) over SRMS (unknown origin)
Homo sapiens [18] = species: Homo sapiens; experiment: Selectivity for p38alpha MAP kinase (unknown origin) over FER (unknown origin)
Homo sapiens [19] = species: Homo sapiens; experiment: Selectivity for p38alpha MAP kinase (unknown origin) over NEK2 (unknown origin)
Homo sapiens [20] = species: Homo sapiens; experiment: Selectivity for p38alpha MAP kinase (unknown origin) over EPHA1 (unknown origin)
Homo sapiens [21] = species: Homo sapiens; experiment: Selectivity for p38alpha MAP kinase (unknown origin) over INS-R (unknown origin)
Homo sapiens [22] = species: Homo sapiens; experiment: Selectivity for p38alpha MAP kinase (unknown origin) over PKC-beta1 (unknown origin)
Homo sapiens [23] = species: Homo sapiens; experiment: Selectivity for p38alpha MAP kinase (unknown origin) over MAP3K7/MAP3K7IP1 (unknown origin)
Homo sapiens [24] = species: Homo sapiens; experiment: Selectivity for p38alpha MAP kinase (unknown origin) over ASK1 (unknown origin)
Homo sapiens [25] = species: Homo sapiens; experiment: Selectivity for p38alpha MAP kinase (unknown origin) over MEK2 (unknown origin)
Homo sapiens [26] = species: Homo sapiens; experiment: Selectivity for p38alpha MAP kinase (unknown origin) over EPHA8 (unknown origin)
Homo sapiens [27] = species: Homo sapiens; experiment: Selectivity for p38alpha MAP kinase (unknown origin) over SNK (unknown origin)
Homo sapiens [28] = species: Homo sapiens; experiment: Selectivity for p38alpha MAP kinase (unknown origin) over EGFR G719C mutant (unknown origin)
Homo sapiens [29] = species: Homo sapiens; experiment: Selectivity for p38alpha MAP kinase (unknown origin) over RAF1 Y340D/Y341D double mutant (unknown origin)
Homo sapiens [30] = species: Homo sapiens; experiment: Selectivity for p38alpha MAP kinase (unknown origin) over MET D1228H mutant (unknown origin)
Homo sapiens [31] = species: Homo sapiens; experiment: Selectivity for p38alpha MAP kinase (unknown origin) over Aurora-B (unknown origin)
Homo sapiens [32] = species: Homo sapiens; experiment: Selectivity for p38alpha MAP kinase (unknown origin) over BMPR1A (unknown origin)
Homo sapiens [33] = species: Homo sapiens; experiment: Selectivity for p38alpha MAP kinase (unknown origin) over JNK3 (unknown origin)
Homo sapiens [34] = species: Homo sapiens; experiment: Selectivity for p38alpha MAP kinase (unknown origin) over wild type FLT3 (unknown origin)
Homo sapiens [35] = species: Homo sapiens; experiment: Selectivity for p38alpha MAP kinase (unknown origin) over PAK2 (unknown origin)
Homo sapiens [36] = species: Homo sapiens; experiment: Selectivity for p38alpha MAP kinase (unknown origin) over ROCK1 (unknown origin)
Homo sapiens [37] = species: Homo sapiens; experiment: Selectivity for p38alpha MAP kinase (unknown origin) over wild-type ABL1 (unknown origin)
Homo sapiens [38] = species: Homo sapiens; experiment: Selectivity for p38alpha MAP kinase (unknown origin) over RPS6KA5 (unknown origin)
Homo sapiens [39] = species: Homo sapiens; experiment: Selectivity for p38alpha MAP kinase (unknown origin) over TEC (unknown origin)
Homo sapiens [40] = species: Homo sapiens; experiment: Selectivity for p38alpha MAP kinase (unknown origin) over PAK1 (unknown origin)
Homo sapiens [41] = species: Homo sapiens; experiment: Selectivity for p38alpha MAP kinase (unknown origin) over CK1-alpha1 (unknown origin)
Homo sapiens [42] = species: Homo sapiens; experiment: Selectivity for p38alpha MAP kinase (unknown origin) over ARK5 (unknown origin)
Homo sapiens [43] = species: Homo sapiens; experiment: Selectivity for p38alpha MAP kinase (unknown origin) over IRAK1 (unknown origin)
[44] = target: Calcium/calmodulin-dependent protein kinase type II subunit delta (Homo sapiens) (UniProt Q13557); experiment: Inhibition of CAMK2D (unknown origin) at 10 uM
Calcium/calmodulin-dependent protein kinase type II subunit delta (Homo sapiens), sequence (Q13557 whole entry): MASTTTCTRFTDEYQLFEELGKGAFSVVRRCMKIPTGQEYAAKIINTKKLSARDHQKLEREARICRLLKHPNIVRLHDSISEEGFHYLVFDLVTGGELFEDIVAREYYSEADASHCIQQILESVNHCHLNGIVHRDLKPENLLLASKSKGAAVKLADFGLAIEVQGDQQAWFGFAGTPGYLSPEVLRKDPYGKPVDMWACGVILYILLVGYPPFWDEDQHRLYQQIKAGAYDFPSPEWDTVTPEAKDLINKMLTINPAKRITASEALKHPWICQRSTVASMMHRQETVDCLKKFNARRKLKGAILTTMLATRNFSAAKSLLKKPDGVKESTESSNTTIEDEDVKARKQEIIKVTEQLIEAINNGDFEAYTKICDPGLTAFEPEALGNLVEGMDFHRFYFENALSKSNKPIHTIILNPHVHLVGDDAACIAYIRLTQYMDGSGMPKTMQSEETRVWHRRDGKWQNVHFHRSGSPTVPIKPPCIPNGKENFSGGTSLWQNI

Homo sapiens [45] = species: Homo sapiens; experiment: Selectivity for p38alpha MAP kinase (unknown origin) over PKC-beta2 (unknown origin)
Homo sapiens [46] = species: Homo sapiens; experiment: Selectivity for p38alpha MAP kinase (unknown origin) over ROS (unknown origin)
Homo sapiens [47] = species: Homo sapiens; experiment: Selectivity for p38alpha MAP kinase (unknown origin) over GRK7 (unknown origin)
Homo sapiens [48] = species: Homo sapiens; experiment: Selectivity for p38alpha MAP kinase (unknown origin) over wild type MET (unknown origin)
Homo sapiens [49] = species: Homo sapiens; experiment: Selectivity for p38alpha MAP kinase (unknown origin) over PDGFR-beta (unknown origin)
Homo sapiens [50] = species: Homo sapiens; experiment: Selectivity for p38alpha MAP kinase (unknown origin) over AXL (unknown origin)
Homo sapiens [51] = species: Homo sapiens; experiment: Selectivity for p38alpha MAP kinase (unknown origin) over EGFR G719S mutant (unknown origin)
Homo sapiens [52] = species: Homo sapiens; experiment: Selectivity for p38alpha MAP kinase (unknown origin) over RON (unknown origin)
[53] = target: Mitogen-activated protein kinase 14 (Homo sapiens, UniProt Q16539); experiment: Competitive inhibition of p38alpha MAP kinase (unknown origin) in presence of 300 uM ATP
Mitogen-activated protein kinase 14, sequence (Q16539 whole entry): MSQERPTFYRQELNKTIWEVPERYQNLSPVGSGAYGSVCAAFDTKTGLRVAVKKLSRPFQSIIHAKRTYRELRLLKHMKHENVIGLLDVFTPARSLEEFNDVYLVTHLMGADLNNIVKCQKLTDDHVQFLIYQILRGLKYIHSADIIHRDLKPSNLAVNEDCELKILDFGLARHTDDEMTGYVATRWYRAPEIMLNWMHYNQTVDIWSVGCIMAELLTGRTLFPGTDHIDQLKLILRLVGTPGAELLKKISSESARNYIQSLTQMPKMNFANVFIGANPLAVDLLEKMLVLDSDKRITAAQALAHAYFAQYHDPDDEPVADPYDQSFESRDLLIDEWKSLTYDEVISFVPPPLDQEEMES

Homo sapiens [54] = species: Homo sapiens; experiment: Selectivity for p38alpha MAP kinase (unknown origin) over EPHA3 (unknown origin)
Homo sapiens [55] = species: Homo sapiens; experiment: Selectivity for p38alpha MAP kinase (unknown origin) over MINK1 (unknown origin)
Homo sapiens [56] = species: Homo sapiens; experiment: Selectivity for p38alpha MAP kinase (unknown origin) over PDGFR-alpha D842V mutant (unknown origin)
Homo sapiens [57] = species: Homo sapiens; experiment: Selectivity for p38alpha MAP kinase (unknown origin) over FGR (unknown origin)
Homo sapiens [58] = species: Homo sapiens; experiment: Selectivity for p38alpha MAP kinase (unknown origin) over ABL1 Q252H mutant (unknown origin)
Homo sapiens [59] = species: Homo sapiens; experiment: Selectivity for p38alpha MAP kinase (unknown origin) over LCK (unknown origin)
Homo sapiens [60] = species: Homo sapiens; experiment: Selectivity for p38alpha MAP kinase (unknown origin) over BTK (unknown origin)
Homo sapiens [61] = species: Homo sapiens; experiment: Selectivity for p38alpha MAP kinase (unknown origin) over JAK3 (unknown origin)
Homo sapiens [62] = species: Homo sapiens; experiment: Selectivity for p38alpha MAP kinase (unknown origin) over VEGF-R1 (unknown origin)
Homo sapiens [63] = species: Homo sapiens; experiment: Selectivity for p38alpha MAP kinase (unknown origin) over ERBB4 (unknown origin)

With `Cc1cc(F)c(NC(=O)c2ccsc2)cc1Nc1ccc2c(c1)OCc1ccc(OC[C@H](O)CO)cc1C2=O` the Selectivity ratio (Homo sapiens [1]) was > 1000, the Selectivity ratio (Homo sapiens [2]) was > 1000 and the Selectivity ratio (Homo sapiens [3]) was > 1000. The Selectivity ratio (Homo sapiens [4]) was > 1000, the Selectivity ratio (Homo sapiens [5]) was > 1000 and the Selectivity ratio (Homo sapiens [6]) was > 1000. For the same molecule, the Selectivity ratio (Homo sapiens [7]) was > 1000, the Selectivity ratio (Homo sapiens [8]) was > 1000 and the Selectivity ratio (Homo sapiens [9]) was > 1000. The Selectivity ratio (Homo sapiens [10]) was > 1000, the inhibition [11] was > 50% and the Selectivity ratio (Homo sapiens [12]) was > 1000. For the same molecule, the Selectivity ratio (Homo sapiens [13]) was > 1000, the Selectivity ratio (Homo sapiens [14]) was > 1000 and the Selectivity ratio (Homo sapiens [15]) was > 1000. The Selectivity ratio (Homo sapiens [16]) was > 1000, the Selectivity ratio (Homo sapiens [17]) was > 1000 and the Selectivity ratio (Homo sapiens [18]) was > 1000. The Selectivity ratio (Homo sapiens [19]) was > 1000, the Selectivity ratio (Homo sapiens [20]) was > 1000 and the Selectivity ratio (Homo sapiens [21]) was > 1000. The Selectivity ratio (Homo sapiens [22]) was > 1000, the Selectivity ratio (Homo sapiens [23]) was > 1000 and the Selectivity ratio (Homo sapiens [24]) was > 1000. The Selectivity ratio (Homo sapiens [25]) was > 1000, the Selectivity ratio (Homo sapiens [26]) was > 1000 and the Selectivity ratio (Homo sapiens [27]) was > 1000. For the same molecule, the Selectivity ratio (Homo sapiens [28]) was > 1000, the Selectivity ratio (Homo sapiens [29]) was > 1000 and the Selectivity ratio (Homo sapiens [30]) was > 1000. For the same molecule, the Selectivity ratio (Homo sapiens [31]) was > 1000, the Selectivity ratio (Homo sapiens [32]) was > 1000 and the Selectivity ratio (Homo sapiens [33]) was > 1000. For the same molecule, the Selectivity ratio (Homo sapiens [34]) was > 1000, the Selectivity ratio (Homo sapiens [35]) was > 1000 and the Selectivity ratio (Homo sapiens [36]) was > 1000. For the same molecule, the Selectivity ratio (Homo sapiens [37]) was > 1000, the Selectivity ratio (Homo sapiens [38]) was > 1000 and the Selectivity ratio (Homo sapiens [39]) was > 1000. The Selectivity ratio (Homo sapiens [40]) was > 1000, the Selectivity ratio (Homo sapiens [41]) was > 1000 and the Selectivity ratio (Homo sapiens [42]) was > 1000. For the same molecule, the Selectivity ratio (Homo sapiens [43]) was > 1000, the inhibition [44] was > 50% and the Selectivity ratio (Homo sapiens [45]) was > 1000. The Selectivity ratio (Homo sapiens [46]) was > 1000, the Selectivity ratio (Homo sapiens [47]) was > 1000 and the Selectivity ratio (Homo sapiens [48]) was > 1000. The Selectivity ratio (Homo sapiens [49]) was > 1000, the Selectivity ratio (Homo sapiens [50]) was > 1000 and the Selectivity ratio (Homo sapiens [51]) was > 1000. The Selectivity ratio (Homo sapiens [52]) was > 1000, the IC50 [53] was 4 nM and the Selectivity ratio (Homo sapiens [54]) was > 1000. The Selectivity ratio (Homo sapiens [55]) was > 1000, the Selectivity ratio (Homo sapiens [56]) was > 1000 and the Selectivity ratio (Homo sapiens [57]) was > 1000. For the same molecule, the Selectivity ratio (Homo sapiens [58]) was > 1000, the Selectivity ratio (Homo sapiens [59]) was > 1000 and the Selectivity ratio (Homo sapiens [60]) was > 1000. For the same molecule, the Selectivity ratio (Homo sapiens [61]) was > 1000, the Selectivity ratio (Homo sapiens [62]) was > 1000 and the Selectivity ratio (Homo sapiens [63]) was > 1000.
